In BindingDB's records for doi:10.1186/1472-6769-1-3 (Kimmel Cancer Center, 2001):

Molecular target: Bis(5'-adenosyl)-triphosphatase (Homo sapiens, UniProt P49789)
Assay: Enzyme Inhibition Assay
Source text: Inhibition assay using Fhit with ApppBODIPY.

Sequence of Bis(5'-adenosyl)-triphosphatase (P49789 whole entry): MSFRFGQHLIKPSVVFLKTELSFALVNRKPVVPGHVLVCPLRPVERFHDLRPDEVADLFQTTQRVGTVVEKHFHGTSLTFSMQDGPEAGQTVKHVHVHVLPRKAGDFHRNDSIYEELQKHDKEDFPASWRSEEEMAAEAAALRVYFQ

SMILES	Ki [nM]
Nc1ncnc2c1ncn2C1O[C@H](COP(=O)(O)OCC(O)COP(=O)(O)OCC2O[C@@H](n3cnc4c(N)ncnc43)[C@H](O)C2O)[C@@H](O)[C@H]1O (stereo partly specified) [AppppA analog, 6 (X=O)]	4700
Nc1ncnc2c1ncn2C1OC(COP(=O)(S)OCCOP(O)(=S)OCC2OC(n3cnc4c(N)ncnc43)C(O)C2O)C(O)C1O (stereo unspecified) [AppppA analog, 2 (X=S)]	2600
Nc1ncnc2c1ncn2C1OC(COP(=O)(O)OCC(COP(=O)(O)OCC2O[C@@H](n3cnc4c(N)ncnc43)[C@H](O)[C@@H]2O)(COP(=O)(O)OCC2O[C@@H](n3cnc4c(N)ncnc43)[C@H](O)[C@@H]2O)COP(=O)(O)OC[C@H]2OC(n3cnc4c(N)ncnc43)[C@H](O)[C@@H]2O)[C@H](O)[C@@H]1O (stereo partly specified) [AppppA analog, 13 (X=O)]	3200
Nc1ncnc2c1ncn2C1OC(COP(=O)(S)OCCCOP(O)(=S)OCC2OC(n3cnc4c(N)ncnc43)C(O)C2O)C(O)C1O (stereo unspecified) [AppppA analog, 9 (X=S)]	230
Nc1ncnc2c1ncn2C1O[C@H](COP(=O)(O)OCC(COP(=O)(O)OCC2O[C@@H](n3cnc4c(N)ncnc43)[C@H](O)[C@@H]2O)OP(=O)(O)O)[C@@H](O)[C@H]1O (stereo partly specified) [AppppA analog, 17 (X=O)]	420
Nc1ncnc2c1ncn2C1O[C@H](COP(O)(=S)OC=P(O)(O)COP(=O)(S)OCC2O[C@@H](n3cnc4c(N)ncnc43)[C@H](O)[C@@H]2O)[C@@H](O)[C@H]1O (stereo partly specified) [AppppA analog, 5 (X=S)]	220
Nc1ncnc2c1ncn2C1O[C@H](COP(=O)(O)OCP(O)(O)=COP(=O)(O)OCC2O[C@@H](n3cnc4c(N)ncnc43)[C@H](O)[C@@H]2O)[C@@H](O)[C@H]1O (stereo partly specified) [AppppA analog, 5 (X=O)]	1500
Nc1ncnc2c1ncn2C1OC(COP(=O)(S)SCCCSP(O)(=S)OCC2OC(n3cnc4c(N)ncnc43)C(O)C2O)C(O)C1O (stereo unspecified) [AppppA analog, 11 (X=S)]	5200
Nc1ncnc2c1ncn2C1OC(COP(=O)(S)OCC(COP(=O)(O)S)(COP(=O)(O)S)COP(O)(=S)OCC2OC(n3cnc4c(N)ncnc43)C(O)C2O)C(O)C1O (stereo unspecified) [AppppA analog, 14 (X=S)]	700
CC(COP(=O)(S)OCC1OC(n2cnc3c(N)ncnc32)C(O)C1O)COP(O)(=S)OCC1OC(n2cnc3c(N)ncnc32)C(O)C1O (stereo unspecified) [AppppA analog, 7 (X=S)]	76000
Nc1ncnc2c1ncn2C1O[C@H](COP(=O)(O)OCC(COP(=O)(O)O)(COP(=O)(O)O)COP(=O)(O)OCC2O[C@@H](n3cnc4c(N)ncnc43)[C@H](O)[C@@H]2O)[C@@H](O)[C@H]1O (stereo partly specified) [AppppA analog, 14 (X=O)]	900
Nc1ncnc2c1ncn2C1OC(COP(=O)(S)OC(C(=O)O)C(OP(O)(=S)OCC2OC(n3cnc4c(N)ncnc43)C(O)C2O)C(=O)O)C(O)C1O (stereo unspecified) [AppppA analog, 3 (X=S)]	86000

The remaining lines, values ahead:

Ki [nM]	SMILES
1500	Nc1ncnc2c1ncn2C1O[C@H](COP(=O)(O)OCC(COP(=O)(O)OCC2O[C@@H](n3cnc4c(N)ncnc43)[C@H](O)[C@@H]2O)OP(=O)(O)OC[C@H]2OC(n3cnc4c(N)ncnc43)[C@H](O)[C@@H]2O)[C@@H](O)[C@H]1O (stereo partly specified) [AppppA analog, 15 (X=O)]
3000	Nc1ncnc2c1ncn2C1OC(COP(=O)(S)OCC(N)COP(O)(=S)OCC2OC(n3cnc4c(N)ncnc43)C(O)C2O)C(O)C1O (stereo unspecified) [AppppA analog, 8 (X=S)]
1500	Nc1ncnc2c1ncn2C1OC(COP(=O)(O)OCC(COP(=O)(O)O)(COP(=O)(O)OCC2O[C@@H](n3cnc4c(N)ncnc43)[C@H](O)[C@@H]2O)COP(=O)(O)OC[C@H]2OC(n3cnc4c(N)ncnc43)[C@H](O)[C@@H]2O)[C@H](O)[C@@H]1O (stereo partly specified) [AppppA analog, 12 (X=O)]
110	Nc1ncnc2c1ncn2C1OC(COP(=O)(S)OCC(COP(O)(=S)OCC2OC(n3cnc4c(N)ncnc43)C(O)C2O)OP(=O)(O)S)C(O)C1O (stereo unspecified) [AppppA analog, 17 (X=S)]
2700	Nc1ncnc2c1ncn2C1O[C@H](COP(=O)(S)NCC(CNP(O)(=S)OCC2O[C@@H](n3cnc4c(N)ncnc43)[C@H](O)[C@@H]2O)OP(=O)(S)OC[C@H]2OC(n3cnc4c(N)ncnc43)[C@H](O)[C@@H]2O)[C@@H](O)[C@H]1O (stereo partly specified) [AppppA analog, 16 (X=S)]
86000	Nc1ncnc2c1ncn2C1OC(COP(=O)(S)OCC(O)C(O)COP(O)(=S)OCC2OC(n3cnc4c(N)ncnc43)C(O)C2O)C(O)C1O (stereo unspecified) [AppppA analog, 4 (X=S)]
3300	Nc1ncnc2c1ncn2C1O[C@H](COP(=O)(S)NCCCNP(O)(=S)OCC2O[C@@H](n3cnc4c(N)ncnc43)[C@H](O)[C@@H]2O)[C@@H](O)[C@H]1O (stereo partly specified) [AppppA analog, 10 (X=S)]
78	Nc1ncnc2c1ncn2C1OC(COP(=O)(S)OCC(COP(O)(=S)OCC2OC(n3cnc4c(N)ncnc43)C(O)C2O)OP(=O)(S)OCC2OC(n3cnc4c(N)ncnc43)C(O)C2O)C(O)C1O (stereo unspecified) [AppppA analog, 15 (X=S)]
65	Nc1ncnc2c1ncn2C1OC(COP(=O)(S)OCC(COP(=O)(S)OCC2OC(n3cnc4c(N)ncnc43)C(O)C2O)(COP(=O)(S)OCC2OC(n3cnc4c(N)ncnc43)C(O)C2O)COP(O)(=S)OCC2OC(n3cnc4c(N)ncnc43)C(O)C2O)C(O)C1O (stereo unspecified) [AppppA analog, 13 (X=S)]
